System: Caenorhabditis elegans
Conditions: Application rate 10 micrograms per milliliter agar; evaluated after 24 h at 20° C.
Protocol: The activity of the compounds against Caenorhabditis elegans was determined by dissolving compounds in DMSO, then applying them to petri dishes containing Nematode Growth Medium agar to a final concentration of 10 micrograms (μg) compound per milliliter agar. Escherichia coli bacteria were grown on the plates to provide a food source for the larvae of Caenorhabditis elegans. The bacteria were heat-killed at 65° C. before compounds were added to the plates.
The plates with compound and heat-killed bacteria were infested with 10 microliter (μL) drops containing eggs from wild-type Caenorhabditis elegans worms. Adult worms were dissolved in potassium hydroxide (KOH) and bleach and washed in Ringers solution to generate the egg suspension. Each compound was screened with approximately 400 eggs, divided between two petri dishes. Egg hatching was evaluated after 24 h at 20° C. Mortality was averaged over the two plates.

Substance ivermectin has a Percent mortality of 95%.

Reference: patent US8921382B2, “Thiazolo[5,4-d] pyrimidines and their use as agrochemicals” (Dow AgroSciences, LLC., priority 2010, dated 2014)
